Values quoted from earlier work in patent US20040248979A1, “Method of treating lower urinary tract disorders” (DYNOGEN PHARMACEUTICALS, INC., priority 2003, published 2004).

What was measured:
[1] = test system: α2δ subunits of calcium channels
[2] = preclinical and clinical studies

## COc1cccc([C@]2(O)CCCC[C@H]2CN(C)C)c1 (racemic) [Tramadol, (+/−)cis-2-[(dimethylamino)methyl]-1-(3-methoxyphenyl) cyclohexanol]
Opioid receptors
  affinity for opioid receptors: low affinity

## NCC1(CC(=O)O)CCCCC1 [Gabapentin, 1-(aminomethyl) cyclohexaneacetic acid]
[1]
  binding affinity for calcium channel subunits: high binding affinity

## CC(C)C[C@H](CN)CC(=O)O [Pregabalin, (3S)-3-(aminomethyl)-5-methylhexanoic acid]
[1]
  binding affinity for calcium channel subunits: even higher binding affinity for certain α2δ subunits of calcium channels than gabapentin

## CC(OC(=O)NCC1(CC(=O)O)CCCCC1)OC(=O)C(C)C (centres unmarked) [XP13512]
[2]; broad range of oral doses
  blood levels of gabapentin across oral doses: dose proportional blood levels of gabapentin
[2]
  absorption from the large intestine: absorbed efficiently from the large intestine
